Test systems include DLD-1 colon; DMS 114 small cell lung; DMS 273 small cell lung; LXFL 529 NSCLC; M19-MEL melanoma; RXF-631 renal; SNB-78 CNS; XF 498 CNS; MDA-N.
Common to all, as to test: NCI tumour cell line growth inhibition, 48 h

The values below come from PubChem BioAssay (NCI).

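Grown in 96-well plates, cells were treated for 48 hours with each compound at five concentrations. Insufficient inhibition: endpoint recorded as highest concentration tested. TGI marks complete inhibition of growth.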

With `COC(=O)c1sc(C(=O)OC)c2c1CS(=O)C2`, the TGI in the assay on DLD-1 colon, with DMS 114 small cell lung, in the assay with DMS 273 small cell lung, in the assay on LXFL 529 NSCLC, with M19-MEL melanoma and in the assay on RXF-631 renal was above 100 µM each time. In addition, the TGI in the assay with SNB-78 CNS and in the assay with XF 498 CNS was above 100 µM throughout.

With `Cc1cc2c(C)nn(Cc3ccccc3)c2c(C(=O)O)c1C`, the TGI in the assay with DMS 273 small cell lung, in the assay on LXFL 529 NSCLC, with M19-MEL melanoma, in the assay with RXF-631 renal, in the assay on SNB-78 CNS and in the assay with XF 498 CNS was above 100 µM each time.

As to `CCOC(=O)NC(=O)c1cn(CCN2CCN(C(=O)NCCCCCCNC(=O)N3CCN(CCn4cc(C(=O)NC(=O)OCC)c(=O)[nH]c4=O)CC3)CC2)c(=O)[nH]c1=O`, the TGI in the assay on DMS 114 small cell lung, with DMS 273 small cell lung, in the assay with LXFL 529 NSCLC, with M19-MEL melanoma, in the assay with RXF-631 renal and in the assay on SNB-78 CNS was above 100 µM in each case. In the assay on XF 498 CNS, the TGI is above 100 µM.

For `C/C=C/C(C#N)O[Si](C)(C)C` (stereo not given), the TGI in the assay on DLD-1 colon, with DMS 114 small cell lung, in the assay on DMS 273 small cell lung, in the assay on LXFL 529 NSCLC, with M19-MEL melanoma and in the assay on SNB-78 CNS was above 100 µM in each case. Also, in the assay on XF 498 CNS, the TGI is above 100 µM.

As to `C=C(c1ccccc1)C1(O)CCCCC1N` (stereo not given), the TGI in the assay on DLD-1 colon, in the assay on DMS 114 small cell lung, with DMS 273 small cell lung, in the assay with LXFL 529 NSCLC, in the assay on M19-MEL melanoma and in the assay with SNB-78 CNS was above 100 µM in each case. In the assay on XF 498 CNS, this compound gave a TGI above 100 µM.

As to `O=C1Nc2ccccc2C1(O)C/C(=N/O)c1ccc2ccccc2c1` (stereo not given), the TGI with DLD-1 colon, in the assay with DMS 114 small cell lung, with LXFL 529 NSCLC, in the assay on M19-MEL melanoma, in the assay with RXF-631 renal and in the assay on SNB-78 CNS was above 100 µM each time. The TGI with XF 498 CNS was above 100 µM.

In the assay on MDA-N, `COc1cc2c(c3c1c(=O)c1ccccc1n3C)C=CC1(CCCC1)O2` gave a TGI of 29.3 µM.

`Cn1c(=O)c(N=Nc2c(=O)n(C)c(=O)n3c2[nH]c2ccccc23)c2[nH]c3ccccc3n2c1=O`: the TGI in the assay on DLD-1 colon, in the assay on DMS 114 small cell lung, with DMS 273 small cell lung, in the assay with LXFL 529 NSCLC, with M19-MEL melanoma and in the assay on RXF-631 renal was above 100 µM in each case. The TGI in the assay with SNB-78 CNS and in the assay with XF 498 CNS was above 100 µM each time.

With `COc1ccc2nccc(C3=CCC4CCN(C(=O)c5ccccc5)C3C4)c2c1` (stereo not given), the TGI in the assay with DLD-1 colon, in the assay with DMS 114 small cell lung, with DMS 273 small cell lung, in the assay on LXFL 529 NSCLC, with M19-MEL melanoma and in the assay on SNB-78 CNS was above 100 µM in each case. The same compound showed a TGI in the assay with XF 498 CNS above 100 µM.

In the case of `O=C1C2C3C=C4c5ccccc5N(c5ccccc5)C4(C2C(=O)N1c1ccccc1)C1C(=O)N(c2ccccc2)C(=O)C31` (stereo not given), the TGI in the assay with DLD-1 colon, in the assay with DMS 114 small cell lung, in the assay with LXFL 529 NSCLC, in the assay on M19-MEL melanoma, in the assay on RXF-631 renal and in the assay with SNB-78 CNS was above 100 µM throughout. This compound had a TGI with XF 498 CNS above 100 µM.

Regarding `Cn1c(=O)nc2n(-c3ccc(O)cc3)c3ccccc3nc-2c1=O`, the TGI in the assay on DLD-1 colon was above 100 µM; in the assay on DMS 114 small cell lung it was above 100 µM; in the assay with DMS 273 small cell lung, above 100 µM; in the assay with LXFL 529 NSCLC, above 100 µM; in the assay with M19-MEL melanoma, 81.1 µM; in the assay with RXF-631 renal, above 100 µM. Besides, the TGI with SNB-78 CNS and in the assay with XF 498 CNS was above 100 µM throughout.

As for `Cc1c(/C=N/NC(=O)c2ccccc2O)c(=O)n(-c2ccccc2)n1C`, the TGI in the assay with DLD-1 colon, with DMS 114 small cell lung, in the assay on DMS 273 small cell lung, in the assay with LXFL 529 NSCLC, with M19-MEL melanoma and in the assay with SNB-78 CNS was above 100 µM throughout. In the assay on XF 498 CNS, this compound registered a TGI above 100 µM.

On to `N#CC(N)=Nc1ccccc1`, for which the TGI is above 100 µM with DLD-1 colon; 31.1 µM with DMS 114 small cell lung; above 100 µM with DMS 273 small cell lung; above 100 µM in the assay on LXFL 529 NSCLC; above 100 µM with M19-MEL melanoma; above 100 µM in the assay with RXF-631 renal.

With `CC(=O)OCc1c2ccccc2c(C)c2c1cc(F)c1ccccc12`, the TGI was 64.3 µM with DLD-1 colon; above 100 µM in the assay on DMS 114 small cell lung; 26.4 µM in the assay on DMS 273 small cell lung; above 100 µM in the assay on LXFL 529 NSCLC; 63 µM in the assay on RXF-631 renal; 59.8 µM in the assay with SNB-78 CNS. The TGI in the assay with XF 498 CNS was 45.2 µM.

On to `O=C(COc1ccccc1Cl)N1N=C(c2ccc(Cl)cc2)CC1(O)c1ccccc1` (stereo not given), for which the TGI with DLD-1 colon, with DMS 273 small cell lung, in the assay on LXFL 529 NSCLC, with M19-MEL melanoma, with RXF-631 renal and in the assay on SNB-78 CNS was above 100 µM throughout. For the same compound, the TGI in the assay on XF 498 CNS is above 100 µM.

For `CN(C)c1cc2ccccc2oc1=O`, the TGI in the assay with MDA-N is above 100 µM.

With `O=C(/C=C/c1ccccc1)Oc1cccc2cccnc12`, the TGI in the assay on DLD-1 colon was 31.4 µM; in the assay on DMS 273 small cell lung it was 45.6 µM; with LXFL 529 NSCLC, 52.2 µM; with M19-MEL melanoma, above 100 µM; with SNB-78 CNS, above 100 µM; in the assay with XF 498 CNS, 72.5 µM.

With `Nc1ncnc2c1ncn2C1OC(CSCC(F)(F)F)C(O)C1O` (stereo not given), the TGI with DLD-1 colon, in the assay on DMS 273 small cell lung, with LXFL 529 NSCLC, in the assay on M19-MEL melanoma, in the assay with SNB-78 CNS and with XF 498 CNS was above 100 µM each time.

With `C/C(CC(O)(C(F)(F)F)C(F)(F)F)=N\NC(N)=O`, the TGI in the assay with MDA-N was above 10 µM.

For the compound `Cn1ccnc1CCc1c(Cl)cccc1Cl`, the TGI in the assay with DLD-1 colon, in the assay on DMS 114 small cell lung, with DMS 273 small cell lung, in the assay on LXFL 529 NSCLC, with M19-MEL melanoma and in the assay with SNB-78 CNS was above 100 µM each time.
